Data set [1] is described as follows: Solution stability of didanosine as a function of pH (stomach degradation model, Acid Neutralization Rate Test). It counts as physicochemical. Particulars: water with hcl; pH 5, 37° C., 1/2 hour.
The conditions of data set [2]: 37° C., cited from earlier work.

Where two headings read alike, the source gives them in different places.

As to `OC[C@@H]1CC[C@H](n2cnc3c(O)ncnc32)O1` [Didanosine, 2',3'-Dideoxyinosine], the degraded at 0.5 h in data set [1] is < 4%. In addition, the t90 in data set [2] (pH 7.4) is 16 days; in data set [2] (pH 9.5) it was 509 days; in data set [2] (pH <3), < 0.0014 days.

The record behind these values is patent publication US5880106A, “Oral dosing formulations of dideoxy purine nucleosides” (Bristol-Myers Squibb Company, priority 1997, dated 1999).
